Where two headings read alike, the source gives them in different places.
Tests used:
KB cells = experiment: Clonogenic assay; assay type: cell-based, human; settings: 5 μM for 30 minutes, colonies after 12 days
Method: (§1) Biological Assay and Results. […] Freshly trypsinized KB cells were exposed to drug at 5, 0.5, or 0.05 μM for 30 minutes, respectively. Then, 250 or 500 cells were immediately plated and left undisturbed for 12 days. Colonies were fixed with formalin and stained with toluidine blue.

[1] = test system: KB (nasopharyngeal carcinoma); experiment: Cell growth inhibition (standard SRB assay), KB; assay type: cell-based, human; settings: 3 days of continuous treatment, read-out: Cell growth inhibition ED50
[2] = test system: KB-7d (MRP-pleotrophic multidrug-resistant KB sub-clone); experiment: Cell growth inhibition (standard SRB assay), KB-7d; assay type: cell-based, human; settings: 3 days of continuous treatment, read-out: Cell growth inhibition ED50
DNA topoisomerase II = experiment: In vitro topoisomerase II inhibition, plasmid relaxation/cleavage assay; assay type: biochemical; settings: for Minimum concentration to detect linear DNA: DNA topoisomerase II inhibition; for Relative activity as topoisomerase II inhibitor versus standards: compared with GL-331 and etoposide
[3] = test system: A549 (lung adenocarcinoma); experiment: Cell growth inhibition (standard SRB assay), A549; assay type: cell-based, human; settings: 3 days of continuous treatment, read-out: Cell growth inhibition ED50
[4] = test system: A549 (lung adenocarcinoma); experiment: Cytotoxicity (cell killing after 30 minutes of treatment), A549; settings: kills 50% of the cells after 30 minutes of treatment
[5] = test system: KB (nasopharyngeal carcinoma); experiment: Cytotoxicity (cell killing after 30 minutes of treatment), KB; settings: kills 50% of the cells after 30 minutes of treatment
Method: as §1

[6] = test system: MCF-7 (breast adenocarcinoma); experiment: Cell growth inhibition (standard SRB assay), MCF-7; assay type: cell-based, human; settings: 3 days of continuous treatment, read-out: Cell growth inhibition ED50
[7] = test system: MCF-7 (breast adenocarcinoma); experiment: Cytotoxicity (cell killing after 30 minutes of treatment), MCF-7; settings: kills 50% of the cells after 30 minutes of treatment
[8] = test system: KB-7d (MRP-pleotrophic multidrug-resistant KB sub-clone); experiment: Cytotoxicity (cell killing after 30 minutes of treatment), KB-7d; settings: kills 50% of the cells after 30 minutes of treatment
Method: as §1

| Molecule | % Inhibition (KB cells) | EC50 [1] | EC50 [2] | Minimum concentration to detect linear DNA (DNA topoisomerase II) | Relative activity as topoisomerase II inhibitor versus standards (DNA topoisomerase II) | EC50 [3] | Cytotoxicity LD50 [4] | Cytotoxicity LD50 [5] | EC50 [6] | Cytotoxicity LD50 [7] | Cytotoxicity LD50 [8] | EC50 ([3]; Homo sapiens, 72 h) | EC50 ([6]; Homo sapiens, MCF7, 72 h) | EC50 ([1]; Homo sapiens, 72 h) | EC50 ([2]; Homo sapiens, KB7D, 72 h) |
| --- | --- | --- | --- | --- | --- | --- | --- | --- | --- | --- | --- | --- | --- | --- | --- |
| 4′-O-demethyl-4β-[4″-(methyl L-tryptophan-N-carbonyl)-anilino]-4-desoxypodophyllotoxin [Compound 13] | 82% | 750 nM | < 100 nM | 5 µM | at least as active as GL-331 and four-fold more active than etoposide |  |  |  |  |  |  |  |  |  |  |
| COC(=O)[C@H](Cc1ccc(O)cc1)NC(=O)c1ccc(NC2c3cc4c(cc3C(c3cc(OC)c(O)c(OC)c3)C3C(=O)OCC23)OCO4)cc1 (stereo partly drawn) [Compound 12, 4′-O-demethyl-4β-[4″-(methyl L-tyrosine-N-carbonyl)-anilino]-4-desoxy-podophyllotoxin] | 99.5% | 1900 nM | 5000 nM | 5 µM | at least as active as GL-331 and four-fold more active than etoposide | 2400 nM | 12.5 µM | 1.7 µM | 4500 nM | <3.1 µM | <20 µM |  |  |  |  |
| COc1cc(C2c3cc4c(cc3C(NC(=O)[C@H](Cc3ccc(O)cc3)NC(=O)OCc3ccccc3)C3COC(=O)C23)OCO4)cc(OC)c1O (stereo partly drawn) [Compound 10, 4′-O-demethyl-4β-[(N—CBZ-L-tyrosine-carbonyl)-amino]-4-desoxy-podophyllotoxin] |  | 2300 nM | 6700 nM |  |  | > 20000 nM |  |  |  |  |  |  |  |  |  |
| COc1cc([C@@H]2c3cc4c(cc3[C@@H](Nc3ccc([N+](=O)[O-])cc3)[C@H]3COC(=O)[C@H]23)OCO4)cc(OC)c1O [GL-331, reference compound] | 46% | 300 nM | 1900 nM | 5 µM |  | 700 nM | 6.6 µM | 9.9 µM | 12000 nM | 5.3 µM | <50 µM |  |  |  |  |
| COc1cc([C@@H]2c3cc4c(cc3[C@@H](O[C@@H]3O[C@@H]5CO[C@@H](C)O[C@H]5[C@H](O)[C@H]3O)[C@H]3COC(=O)[C@H]23)OCO4)cc(OC)c1O [Etoposide] |  |  |  | 20 µM |  |  | >50 µM | 49.0 µM |  | 21 µM | >50 µM | 5200 nM | > 20000 nM | 750 nM | > 10000 nM |
| 4′-O-demethyl-4β-{4″-[4′″-(benzimidazol-2″″-yl)-amido]-anilino}-4-desoxypodophyllotoxin [Compound 14] |  | > 25000 nM |  |  |  |  |  |  |  |  |  |  |  |  |  |
